In PubChem BioAssay AID1919001 (Molecular Pharmacology Branch, DTP, NCI, 2023):
pIC50: −log10 of the molar value.

Test system: 699152-130-R-J1-PDC complex spheroid growth
Test: Anticancer human tumor 699152-130-R-J1-PDC patient-derived pancreatic carcinoma cell line growth inhibition [AhR]
Conditions: for pIC50: curve of first compound; for viability, T/C: stronger effect = lower value
How it was run: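 Agents were dosed in half-log steps down from roughly clinical Cmax, or from 10 microM where Cmax was unknown, alone and with AhR antagonists. Read-out: percent test/control growth of tumor spheroids containing HUVEC and MSC stromal cells.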
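Further: compound exposure lasted 7 days after spheroids had grown for 3 days.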

CC(C)c1c(-c2ccccc2)nc2c(C#N)c[nH]n2c1=O + Cc1cncc(-c2nc(NCCc3c[nH]c4ccccc34)c3ncn(C(C)C)c3n2)c1
pIC50 (second compound 0.1 µM): < 5.00
pIC50 (second compound 0.316 µM): < 5.00
pIC50 (second compound 1 µM): < 5.00
pIC50 (second compound 3.16 µM): < 5.00
pIC50 (second compound 10 µM): > 7.50
viability, T/C (second compound 0.1 µM, first compound 0.0316 µM): 98.9%
viability, T/C (second compound 0.1 µM, first compound 0.1 µM): 103%
viability, T/C (second compound 0.1 µM, first compound 0.316 µM): 101%
viability, T/C (second compound 0.1 µM, first compound 1 µM): 107%
viability, T/C (second compound 0.1 µM, first compound 3.16 µM): 107%
viability, T/C (second compound 0.1 µM, first compound 10 µM): 111%
viability, T/C (second compound 0.316 µM, first compound 0.0316 µM): 104%
viability, T/C (second compound 0.316 µM, first compound 0.1 µM): 109%
viability, T/C (second compound 0.316 µM, first compound 0.316 µM): 101%
viability, T/C (second compound 0.316 µM, first compound 1 µM): 116%
viability, T/C (second compound 0.316 µM, first compound 3.16 µM): 96.4%
viability, T/C (second compound 0.316 µM, first compound 10 µM): 96.8%
viability, T/C (second compound 1 µM, first compound 0.0316 µM): 118%
viability, T/C (second compound 1 µM, first compound 0.1 µM): 118%
viability, T/C (second compound 1 µM, first compound 0.316 µM): 121%
viability, T/C (second compound 1 µM, first compound 1 µM): 125%
viability, T/C (second compound 1 µM, first compound 3.16 µM): 108%
viability, T/C (second compound 1 µM, first compound 10 µM): 101%
viability, T/C (second compound 3.16 µM, first compound 0.0316 µM): 60.4%
viability, T/C (second compound 3.16 µM, first compound 0.1 µM): 66.4%
viability, T/C (second compound 3.16 µM, first compound 0.316 µM): 65%
viability, T/C (second compound 3.16 µM, first compound 1 µM): 58.9%
viability, T/C (second compound 3.16 µM, first compound 3.16 µM): 58.2%
viability, T/C (second compound 3.16 µM, first compound 10 µM): 66.4%
viability, T/C (second compound 10 µM, first compound 0.0316 µM): 4.82%
viability, T/C (second compound 10 µM, first compound 0.1 µM): 4.89%
viability, T/C (second compound 10 µM, first compound 0.316 µM): 5.56%
viability, T/C (second compound 10 µM, first compound 1 µM): 4.11%
viability, T/C (second compound 10 µM, first compound 3.16 µM): 4.63%
viability, T/C (second compound 10 µM, first compound 10 µM): 6.54%
